How the values were obtained:
[1] = tested on: Phaedon cochleariae larvae; assay: Phaedon cochleariae larvae test (cabbage leaf dip); settings: single active compound
[2] = tested on: Myzus persicae; assay: Myzus persicae test (cabbage leaf dip); assay type: in vivo; settings: single active compound

CN(Cc1ccc(Cl)nc1)C1=CC(=O)OC1 [compound (Ia)]
Kill in % after 6d ([1]; 20 ppm): 5%
Kill in % after 4d ([1]; 100 ppm): 68%
Kill in % after 1d ([2]; 0.8 ppm): 70%

O=C1C=C(N(Cc2ccc(Cl)nc2)C2CC2)CO1 [compound (Ib)]
Kill in % after 1d ([2]; 0.8 ppm): 10%
Kill in % after 1d ([2]; 4 ppm): 75%

Cc1cc(C)c(C2=C(OC(=O)CC(C)(C)C)C3(CCCC3)OC2=O)c(C)c1 [spiromesifen, reference compound]
Kill in % after 6d ([1]; 100 ppm): 10%
Kill in % after 1d ([2]; 100 ppm): 0%

spirotetramate [reference compound]
Kill in % after 4d ([1]; 20 ppm): 5%
Kill in % after 1d ([2]; 0.8 ppm): 5%

— US8105979B2, “Active ingredient combinations with insecticidal and acaricidal properties” (Bayer CropScience AG, priority 2006, dated 2012)
